According to US7947626B2 (priority 2006, dated 2011):

Assays:
[1] = tested on: passaged cortical stem and progenitor cell derived neural networks; type: cell-based, rat
[2] = tested on: primary cortical stem cell and progenitor cell derived neural networks; type: cell-based, rat

| Compound | mean spike rate (MSR) response of the network [1] | raw action potential spike activity, single channel 10 second trace [1] | mean spike rate (MSR) response of the network [2] |
| --- | --- | --- | --- |
| NC(CCCP(=O)(O)O)C(=O)O (racemic) [APV, DL-2-amino-5-phosphonovaleric acid] | decrease in MSR | incremental effects of APV on both spike rate and burst pattern | No additional decrease in network activity |
| N#Cc1cc2c(cc1[N+](=O)[O-])=NC(=O)C(=O)N=2 [CNQX, 6-cyano-7-nitroquinoxaline-2,3-dione] | further decrease in activity | near total blockade of action potentials | decrease in MSR |
| cadmium chloride | responsive | – | – |
